The source of these data is patent US20260022142A1, “MACROCYCLIC IMMUNOMODULATORS” (Bristol-Myers Squibb Company, priority 2022, published 2026).

By IC50 is commonly meant the concentration needed to halve the response being measured.

Numbered stars: 1 amine (or outer) side, 2 acyl side, 3 side chain; on linkers, the order of the positions; unused ones are H or OH. Bridge positions count the residues as written; N and C are the ends. Square brackets hold non-standard residues; d marks the D form. Peptide text beside a SMILES is read from it. * marks the point of attachment. Bip = N[C@@H](Cc1ccc(-c2ccccc2)cc1)C(=O)O; Phe(3-Me) = Cc1cccc(C[C@H](N)C(=O)O)c1; X6 = O=C(Cc1ccc(CN[*:1])cc1)[*:2]; 4Pal = N[C@@H](Cc1ccncc1)C(=O)O; Cha = N[C@@H](CC1CCCCC1)C(=O)O; Cit = NC(=O)NCCC[C@H](N)C(=O)O; Carboxymethyl = O=C(O)C*; Orn = NCCC[C@H](N)C(=O)O; Aun = NCCCCCCCCCCC(=O)O; Dab = NCC[C@H](N)C(=O)O; Dap = NC[C@H](N)C(=O)O; AEEA = NCCOCCOCC(=O)O; Ac3c = NC1(C(=O)O)CC1

T1 sequence (Q15116 25-288): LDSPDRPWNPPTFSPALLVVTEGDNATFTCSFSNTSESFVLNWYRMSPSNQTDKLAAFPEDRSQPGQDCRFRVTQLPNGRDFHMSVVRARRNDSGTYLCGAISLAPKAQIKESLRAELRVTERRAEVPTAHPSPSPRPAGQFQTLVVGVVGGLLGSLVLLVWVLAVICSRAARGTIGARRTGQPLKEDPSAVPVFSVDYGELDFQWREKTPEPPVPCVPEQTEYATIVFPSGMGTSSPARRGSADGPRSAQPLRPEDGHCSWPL

This assay concerns the target T1, PD-1/PD-L1 interaction (PE-labeled human PD-L1-Ig binding to Jurkat cell line over-expressing human PD-1) (Homo sapiens, UniProt Q15116).
T1 construct: expressed in transfected cells; host or cells: Jurkat
Description: Jurkat-PD-1 Cell Binding High-Content Screening Assay (CBA). The note with it: Jurkat cell line over-expressing human PD-1; PE-labeled PD-L1-Ig 20 nM final; read-out: Jurkat hPD1-PDL1 IC50. The assay is classed as cell-based. The method in brief:
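Jurkat-hPD-1 cells, DMEM/10% FCS; cpd 2 h 37° C; PE-PD-L1-Ig 20 nM final, 1 h; 4% PFA fix + Hoechst 33342, 3× dPBS wash; high-content imaging read-out.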
Consider `Cc1cccc(C[C@@H]2NC(=O)[C@H](CC(=O)O)NC(=O)[C@H](Cc3ccc(OCC(=O)O)cc3)NC(=O)[C@H](CN)NC(=O)CSC[C@@H](C(=O)NCc3ccc(CC(=O)N[C@@H](CCCCN)C(=O)NCCCCCCCCCCC(=O)O)cc3)NC(=O)[C@H](CN)NC(=O)[C@H](C(C)C)NC(=O)[C@H](CC3CCCCC3)NC(=O)[C@H](CCN)NC(=O)[C@@H](CC(C)C)NC(=O)[C@H](CCCN)NC(=O)[C@H](C(C)C)NC(=O)[C@H](Cc3ccc(-c4ccccc4)cc3)NC(=O)[C@H](C(C)C)NC2=O)c1` [Compound 2011] ({CH2CO}-[Dap]Y(Carboxymethyl)D[Phe(3-Me)]V[Bip]V[Orn][dL][Dab][Cha]V[Dap]C[X6]K[Aun]-OH; thioether N-14), for which the IC50 worked out at 24.8 nM.
The figure for `Cc1cccc(C[C@@H]2NC(=O)[C@H](CC(=O)O)NC(=O)[C@H](Cc3ccc(OCC(=O)O)cc3)NC(=O)[C@H](CN)NC(=O)CSC[C@@H](C(=O)N[C@@H](CCCCN)C(=O)NCc3ccc(CC(=O)NCCCCCCCCCCC(=O)O)cc3)NC(=O)[C@H](CN)NC(=O)[C@H](C(C)C)NC(=O)[C@H](CC3CCCCC3)NC(=O)[C@H](CCN)NC(=O)[C@@H](CC(C)C)NC(=O)[C@H](CCCN)NC(=O)[C@H](C(C)C)NC(=O)[C@H](Cc3ccc(-c4ccccc4)cc3)NC(=O)[C@H](C(C)C)NC2=O)c1` [Compound 2012] ({CH2CO}-[Dap]Y(Carboxymethyl)D[Phe(3-Me)]V[Bip]V[Orn][dL][Dab][Cha]V[Dap]CK[X6][Aun]-OH; thioether N-14) is 46 nM; for `CC[C@H](C)[C@@H]1NC(=O)[C@H](Cc2ccc(-c3ccccc3)cc2)NC(=O)[C@H](C(C)C)NC(=O)[C@H](Cc2c[nH]c3ccccc23)NC(=O)[C@H](CC(=O)O)NC(=O)[C@H](Cc2ccc(OCC(=O)O)cc2)NC(=O)[C@H](Cc2ccncc2)NC(=O)CSC[C@@H](C(=O)N[C@@H](CCCN)C(=O)NCCOCCOCC(=O)NCc2ccc(CC(=O)NCCCCCCCCCCC(=O)O)cc2)NC(=O)[C@H](CN)NC(=O)[C@H](C(C)C)NC(=O)[C@H](CC(C)C)NC(=O)[C@H](CCN)NC(=O)[C@@H](CC(C)C)NC(=O)[C@H](CCCN)NC1=O` [Compound 2014] ({CH2CO}-[4Pal]Y(Carboxymethyl)DWV[Bip]I[Orn][dL][Dab]LV[Dap]C[Orn][AEEA][X6][Aun]-OH; thioether N-14) it is 33 nM; for `Cc1cccc(C[C@@H]2NC(=O)[C@H](CC(=O)O)NC(=O)[C@H](Cc3ccc(OCC(=O)O)cc3)NC(=O)[C@H](CN)NC(=O)CSC[C@@H](C(=O)NC3(C(=O)N[C@@H](CCCN)C(=O)N[C@H](CO)C(=O)NCCCCCCCCCCC(=O)O)CC3)NC(=O)[C@H]([C@@H](C)O)NC(=O)[C@H](C(C)C)NC(=O)[C@H](CC3CCCCC3)NC(=O)[C@H](CCN)NC(=O)[C@@H](CC(C)C)NC(=O)[C@H](CCCN)NC(=O)[C@H](CCCNC(N)=O)NC(=O)[C@H](Cc3ccc(-c4ccccc4)cc3)NC(=O)[C@H](C(C)C)NC2=O)c1` [Compound 2015] ({CH2CO}-[Dap]Y(Carboxymethyl)D[Phe(3-Me)]V[Bip][Cit][Orn][dL][Dab][Cha]VTC[Ac3c][Orn][dS][Aun]-OH; thioether N-14) it is 19.8 nM.
The figure for `Cc1cccc(C[C@@H]2NC(=O)[C@H](CC(=O)O)NC(=O)[C@H](Cc3ccc(OCC(=O)O)cc3)NC(=O)[C@H](CN)NC(=O)CSC[C@@H](C(=O)N[C@@H](C)C(=O)N[C@@H](CCCN)C(=O)N[C@H](CO)C(=O)NCCCCCCCCCCC(=O)O)NC(=O)[C@H]([C@@H](C)O)NC(=O)[C@H](C(C)C)NC(=O)[C@H](CC3CCCCC3)NC(=O)[C@H](CCN)NC(=O)[C@@H](CC(C)C)NC(=O)[C@H](CCCN)NC(=O)[C@H](CCCNC(=N)N)NC(=O)[C@H](Cc3ccc(-c4ccccc4)cc3)NC(=O)[C@H](C(C)C)NC2=O)c1` [Compound 2016] ({CH2CO}-[Dap]Y(Carboxymethyl)D[Phe(3-Me)]V[Bip]R[Orn][dL][Dab][Cha]VTCA[Orn][dS][Aun]-OH; thioether N-14) is 17.6 nM.
